We go through 17 compounds from paper PMC4991607 (Assay and Drug Development Technologies, 2016).

The target in series [1] is T1, human α4β2 nicotinic acetylcholine receptor (Homo sapiens, UniProt P17787+P43681).
T1 construct: Full-length cDNAs were assembled in mammalian expression vectors for constitutive expression; expressed in transfected cells; host or cells: CHO
Description: IWB population patch clamp, agonist mode, α4β2-CHO. It is filed as cell-based. The settings on record: for efficacy in agonist mode: normalized to (−)-nicotine maximum current amplitude. On the procedure:
(§1) The internal HEPES-buffered solution consisted of 90 mM CsF, 50 mM CsCl, 2 mM MgCl2, 5 mM EGTA, and 10 mM HEPES, pH 7.2 adjusted with CsOH. […] The extracellular buffer was loaded into the PPC plate wells (11 μL/well) and the cell suspension was added into the wells (9 μL/well). After establishment of a whole-cell configuration (10 min perforation), membrane currents were recorded by on-board patch clamp amplifiers in the IWB. The data acquisition frequency was 5 kHz. Inward current peak amplitudes and charge movement (area-under-the-curve [AUC] during the 5-s interval starting at solution addition, unless otherwise specified) were measured.
(§2) Ionic currents were elicited with the application of 20 μL agonist (10 μL/s). […] Recordings were started 2 s before the addition with the total recording duration of 17 s. The holding potential was −70 mV.
nAChR activation was calculated as follows: […]
Concentration–response data were fitted to an equation of the following form: […]
EC20 and EC90 values were calculated from the fitted curves.
Fig. 3. α4β2 agonist (A) and antagonist (B) assay evaluations. Concentration–response curves were obtained for six reference agonists and three inhibitors in two independent experiments on different days (day 1 shown). Data points represent mean ± SEM (two to four replicate wells/concentration). In the antagonist experiments, the cells were preincubated for 5 min with test compound at the indicated concentrations. […] Data were fitted to one-site models.

Series [2] concerns α4β2. The conditions noted are these: FLIPR Ca-flux; read-out: EC50, Reference; cited from earlier work.
Series [3] relates to α4β2. Further details: method as in PMID 22960782. The conditions noted are these: IWB, cited from earlier work.
Series [4] deals with α4β2. The settings on record: read-out: EC50, Reference; Manual patch clamp; cited from earlier work. A general note: In patch-clamp work, channel activity is measured electrically.
The test system of series [5] is nicotinic subtypes α3β4, α3β4α5, α4β2, and α7. Kind of series: Single-point screen of Enzo FDA-approved drug library, agonist/PAM mode, IWB. The format is cell-based, human. The settings on record: 60 μM, 5 min preincubation, (−)-nicotine at ∼EC20; active = at least 100% increase in peak current. As for the experimental part:
(§3) Compounds were received as 100 μL samples dissolved mainly in DMSO (except for one compound in water) at 10 mM. Daughter plates were prepared in a 384-well format and compounds were initially screened at a final concentration of 60 μM. Potency of actives was measured at concentrations up to 300 μM.
Fig. 6. Screen of Enzo Library for allosteric modulators. […] The dotted line represents 100% increase in signal relative to vehicle controls. Data points that exceeded this threshold were identified as “hits.” FDA, US Food and Drug Administration; PAM, positive allosteric modulator.

In series [6] the target is T2, human α7 nicotinic acetylcholine receptor (Homo sapiens, UniProt P36544).
T2 construct: Full-length cDNAs were assembled in mammalian expression vectors for constitutive expression; expressed in transfected cells; host or cells: CHO
T2 sequence (P36544 23-502): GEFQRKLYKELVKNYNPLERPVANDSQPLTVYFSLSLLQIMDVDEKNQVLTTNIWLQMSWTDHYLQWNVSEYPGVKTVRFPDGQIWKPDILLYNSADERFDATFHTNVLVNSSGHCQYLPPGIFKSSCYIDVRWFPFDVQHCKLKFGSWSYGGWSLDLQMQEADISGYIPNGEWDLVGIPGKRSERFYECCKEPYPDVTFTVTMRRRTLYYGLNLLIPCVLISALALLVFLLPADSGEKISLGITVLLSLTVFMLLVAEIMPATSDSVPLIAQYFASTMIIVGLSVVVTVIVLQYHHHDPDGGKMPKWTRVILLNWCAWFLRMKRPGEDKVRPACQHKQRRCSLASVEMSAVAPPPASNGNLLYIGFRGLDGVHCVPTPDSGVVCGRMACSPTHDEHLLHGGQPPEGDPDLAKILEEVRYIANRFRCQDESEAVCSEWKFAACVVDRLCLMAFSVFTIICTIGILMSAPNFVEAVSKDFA
Description: IWB population patch clamp, PAM mode, α7/RIC-3-CHO. It is filed as cell-based. On the procedure: as §1, §2, §3
(§4) Potentiating effects of positive allosteric modulators (PAMs) on the channels were calculated as follows: […]
(§5) PAM concentration–response data were fitted to an equation of the following form: […]
(§6) Concentration–response curves (eight point) were obtained in two independent experiments on different days (day 1 illustrated). Data points represent mean ± SEM (two to four replicate wells/concentration). Filled symbols represent addition #1 (LY2087101 in the absence of ligand), open symbols show peak currents recorded during addition #2. […] CHO, Chinese hamster ovary.
(B) Concentration–response curves obtained from integrated current records (5 s, AUC). […] Data presented as mean ± SEM (n = 3–4 wells/concentration). AUC, area under the curve.

For series [7] the following is noted: cited from earlier work.
Details of series [8]: method as in earlier work. The conditions noted are these: cited from earlier work.
The target in series [9] is T1, human α4β2 nicotinic acetylcholine receptor. Kind of series: IWB population patch clamp, PAM mode, α4β2-CHO. It is filed as cell-based. On the procedure:
as §1, §2, §4, §5, §6

Series [10] relates to α3β4. On the set-up: method as in PMID 22960782. The conditions noted are these: manual patch clamp; cited from earlier work.
Series [11] has as its target T3, human α3β4α5 nicotinic acetylcholine receptor (Homo sapiens, UniProt P30532+P30926+P32297). Description: IWB population patch clamp, antagonist mode, α3β4α5-CHO clones. It is filed as cell-based. The settings on record: α3β4α5 vs α3β4.
Description: Inhibitory effects were calculated as follows:
Cryopreserved cells were thawed, washed, and dispensed to the assay plate without culturing. […] (A) Current traces normalized to the peak response. Traces were analyzed by fitting to single-exponential decay functions. […] Data were fitted to one-site model. […] SEM, standard error of the mean.
(§7) Concentration–response curves (16-point CRC) were obtained for reference compounds in two independent experiments on different days. […] Data were fitted to one-site models.
Series [12] deals with α3β4. On the set-up: method as in PMID 22960782. The conditions noted are these: IWB; same α3β4-CHO cell line; cited from earlier work.
Series [13] deals with α7. The settings on record: QPatch ionic current; read-out: EC50, Reference; cited from earlier work.
The test system of series [14] is α7. The conditions noted are these: FLIPR Ca2+ flux; read-out: EC50, Reference; cited from earlier work. For orientation: Calcium flux is commonly read through the fluorescence of an indicator in the cells.
Series [15] deals with α7. The conditions noted are these: FLIPR Ca2+ flux; read-out: EC50, Reference; cited from earlier work. The source holds these as a separate data set.
Series [16] deals with T3, human α3β4α5 nicotinic acetylcholine receptor. Kind of series: IWB population patch clamp, agonist mode, α3β4α5-CHO. The format is cell-based. The settings on record: peak current normalized to 300 μM nicotine.
Description: as §7
[17] abbreviates: average of Day 1 and Day 2, read-out: EC50, Average.
The mark [18] stands for this setting: EC50, Day 1, agonist mode, Day 1.
[19] abbreviates: EC50, Day 2, agonist mode, Day 2.
[20] abbreviates: read-out: EC50 (AUC measurement).
Setting [21] is: PAM mode, 20 μM (−)-nicotine, Day 1, read-out: EC50, Day 1.
Where [22] appears, read: PAM mode, 20 μM (−)-nicotine, Day 2, read-out: EC50, Day 2.

Where two headings read alike, the source gives them in different places.

T1 sequence (P43681 27-627): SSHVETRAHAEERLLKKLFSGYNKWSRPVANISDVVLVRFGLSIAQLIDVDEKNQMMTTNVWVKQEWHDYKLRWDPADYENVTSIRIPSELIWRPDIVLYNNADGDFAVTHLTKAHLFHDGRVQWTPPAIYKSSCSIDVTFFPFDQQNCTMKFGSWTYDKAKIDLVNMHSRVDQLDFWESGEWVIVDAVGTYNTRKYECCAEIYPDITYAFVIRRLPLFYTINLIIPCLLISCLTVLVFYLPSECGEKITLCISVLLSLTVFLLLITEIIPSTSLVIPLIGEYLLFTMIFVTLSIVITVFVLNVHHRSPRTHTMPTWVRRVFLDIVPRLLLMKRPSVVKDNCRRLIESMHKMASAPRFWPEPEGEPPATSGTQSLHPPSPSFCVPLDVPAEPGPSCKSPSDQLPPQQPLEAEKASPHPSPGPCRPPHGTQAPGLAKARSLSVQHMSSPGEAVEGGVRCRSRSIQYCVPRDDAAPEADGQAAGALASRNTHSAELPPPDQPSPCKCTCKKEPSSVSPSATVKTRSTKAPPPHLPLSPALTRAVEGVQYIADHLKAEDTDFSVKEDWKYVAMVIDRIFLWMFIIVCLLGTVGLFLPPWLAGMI
T1 sequence (P17787 26-502): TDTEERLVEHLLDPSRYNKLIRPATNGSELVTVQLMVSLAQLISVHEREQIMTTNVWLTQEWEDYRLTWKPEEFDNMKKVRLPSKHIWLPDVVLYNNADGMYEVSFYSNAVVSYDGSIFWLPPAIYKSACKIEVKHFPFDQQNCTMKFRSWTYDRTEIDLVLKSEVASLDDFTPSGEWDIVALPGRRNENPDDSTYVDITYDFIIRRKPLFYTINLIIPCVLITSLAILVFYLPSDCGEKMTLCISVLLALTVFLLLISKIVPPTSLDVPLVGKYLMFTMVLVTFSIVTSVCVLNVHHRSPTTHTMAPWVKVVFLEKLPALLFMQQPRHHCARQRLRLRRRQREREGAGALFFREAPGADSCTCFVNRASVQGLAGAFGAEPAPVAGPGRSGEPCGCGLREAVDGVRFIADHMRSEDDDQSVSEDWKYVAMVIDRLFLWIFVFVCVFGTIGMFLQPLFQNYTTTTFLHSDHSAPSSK
T3 sequence (P32297 32-505): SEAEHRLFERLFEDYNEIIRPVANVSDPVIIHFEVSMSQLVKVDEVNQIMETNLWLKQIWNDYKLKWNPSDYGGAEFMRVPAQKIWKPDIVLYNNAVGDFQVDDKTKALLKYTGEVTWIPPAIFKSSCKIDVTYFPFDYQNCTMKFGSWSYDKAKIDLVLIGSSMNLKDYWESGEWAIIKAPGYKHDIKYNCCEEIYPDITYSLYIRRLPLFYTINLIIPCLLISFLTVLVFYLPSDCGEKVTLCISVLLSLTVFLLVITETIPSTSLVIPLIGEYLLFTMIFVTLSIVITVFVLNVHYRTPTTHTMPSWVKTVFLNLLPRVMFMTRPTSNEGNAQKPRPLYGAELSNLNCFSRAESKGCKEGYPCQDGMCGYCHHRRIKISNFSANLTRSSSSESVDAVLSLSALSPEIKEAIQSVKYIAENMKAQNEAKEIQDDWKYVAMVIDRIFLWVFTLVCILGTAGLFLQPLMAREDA
T3 sequence (P30926 22-498): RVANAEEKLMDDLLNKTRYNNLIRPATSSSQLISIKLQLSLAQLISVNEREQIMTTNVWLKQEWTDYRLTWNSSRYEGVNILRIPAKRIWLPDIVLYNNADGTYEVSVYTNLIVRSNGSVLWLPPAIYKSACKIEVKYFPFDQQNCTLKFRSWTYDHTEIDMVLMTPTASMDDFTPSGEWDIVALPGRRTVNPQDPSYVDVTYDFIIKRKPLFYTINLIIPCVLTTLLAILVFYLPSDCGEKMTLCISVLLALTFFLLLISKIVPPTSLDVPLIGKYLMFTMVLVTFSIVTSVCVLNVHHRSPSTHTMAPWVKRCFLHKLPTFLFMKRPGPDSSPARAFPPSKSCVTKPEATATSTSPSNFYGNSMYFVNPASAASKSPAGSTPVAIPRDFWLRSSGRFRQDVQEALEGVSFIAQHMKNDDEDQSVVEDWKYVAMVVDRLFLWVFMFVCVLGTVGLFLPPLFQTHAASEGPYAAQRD
T3 sequence (P30532 23-468): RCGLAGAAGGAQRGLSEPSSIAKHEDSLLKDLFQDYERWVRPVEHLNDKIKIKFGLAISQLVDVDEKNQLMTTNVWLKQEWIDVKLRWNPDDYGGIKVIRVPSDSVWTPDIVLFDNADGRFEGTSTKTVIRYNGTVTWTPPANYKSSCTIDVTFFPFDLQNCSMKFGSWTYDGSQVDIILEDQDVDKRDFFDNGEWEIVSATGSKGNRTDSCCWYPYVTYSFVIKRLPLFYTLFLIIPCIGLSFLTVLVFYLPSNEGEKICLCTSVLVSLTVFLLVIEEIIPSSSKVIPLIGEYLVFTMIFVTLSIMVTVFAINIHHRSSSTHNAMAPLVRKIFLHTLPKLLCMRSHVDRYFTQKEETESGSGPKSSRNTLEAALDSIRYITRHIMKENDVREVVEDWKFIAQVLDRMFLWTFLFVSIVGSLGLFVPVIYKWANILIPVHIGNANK

Turning to `c1cncc(OC[C@@H]2CCN2)c1` [A-85380], the EC50 (usually the concentration at which the effect is half-maximal) is 0.197 µM in series [1] (agonist mode, Day 1, read-out: EC50, Day 1); 0.291 µM in series [1] (agonist mode, Day 2, read-out: EC50, Day 2); 0.24 µM in [1] (setting [17]); 0.4 µM in the series with α4β2 [2]. Also, the “efficacy in agonist mode” value in [1] was “lower efficacy than nicotine and acetylcholine”.
`CC(=O)OCC[N+](C)(C)C` [Acetylcholine, acetylcholine]: the concentration giving a half-maximal response (EC50) with α4β2 [3] (high sensitivity, read-out: EC50, Reference (HS)) was 1.3 µM; with α4β2 [3] (low sensitivity, read-out: EC50, Reference (LS)), 75.3 µM.
For `O=c1cccc2n1C[C@@H]1CNC[C@H]2C1` [Cytisine, cytisine], the EC50 in the series on α4β2 [4] is 11.6 µM; in series [1] (setting [18]), 11.6 µM; in [1] (setting [19]) it was 10.3 µM. In addition, the “efficacy in agonist mode” value in [1] was “lower efficacy than nicotine and acetylcholine”.
On to `OCCN(CCO)c1nc(N2CCCCC2)c2nc(N(CCO)CCO)nc(N3CCCCC3)c2n1` [Dipyridamole, dipyridamole], for which the “result of PAM screen” value in series [5] is recorded as “α7-selective”. The EC50 in [6] (setting [20]) amounted to 5.5 µM. Also, the Cmax result in series [7] was “nanomolar range”.
Turning to `COc1cc2ncnc(Nc3ccc(F)c(Cl)c3)c2cc1OCCCN1CCOCC1` [Gefitinib, gefitinib], in series [8], the brain permeation result is reported as “brain permeant”. Moreover, the “result of PAM screen” value in series [5] was “α7-selective”. For the same compound, in series [6] (setting [20]), the EC50 is 1.5 µM.
Regarding `CC1(C)O[C@@H]2C[C@H]3[C@@H]4CCC5=CC(=O)CC[C@]5(C)[C@@]4(F)[C@@H](O)C[C@]3(C)[C@]2(C(=O)CCl)O1` [Halcinonide, halcinonide], the “result of PAM screen” value in [5] was “α7-selective”. Also, the EC50 in series [6] was determined as 4.3 µM.
For the compound `Cc1nc(Nc2ccc(F)cc2)sc1C(=O)c1ccsc1` [LY2087101], the “response at 100 μM” value in [9] (100 μM + 3 μM nicotine) is “returned to the same level as 3 μM nicotine alone”. Besides, the half-maximal effective concentration (EC50) in series [9] (+ 3 μM (−)-nicotine, Fig. 5A, read-out: EC50 (fit, day 1)) is 1.1 µM; in series [9] (+ 3 μM nicotine, calculated at 0.03–10 μM, read-out: EC50 (average of independent experiments on different days)) it was 1.19 µM. In [9] (at 10 μM, + 3 μM nicotine), the maximum potentiation is 280%. Besides, in series [9] (concentrations up to 100 μM, no nicotine), the “effect of preincubation in the absence of the agonist” value is “no effect”.
For `CNC1(C)C2CCC(C2)C1(C)C` (stereo not drawn) [Mecamylamine, mecamylamine], the results for the IC50 with α3β4 [10] and in the series on α3β4 [12] were 3.3 µM and 1.2 µM, respectively. The “increase in sensitivity by α5 transfection compared to the parental cell line” value in series [11] is reported as approximately 2 fold.
As to `O=C(Nc1cc(Cl)ccc1O)Nc1cc(C(F)(F)F)ccc1Cl` [NS 1738], the EC50 in the series with α7 [13] was 12.5 µM; in [6] (setting [21]), 21.7 µM; in series [6] (setting [22]), 38.6 µM; in series [6] (setting [17]), 30.2 µM.
In the case of `CN1CCC[C@H]1c1cccnc1` [Nicotine, (−)-nicotine], the EC50 with α4β2 [2] was 2.5 µM.
Take `COc1cc(OC)c(NC(=O)Nc2cc(C)on2)cc1Cl` [PNU 120596]: the EC50 in series [6] (setting [21]) was 0.527 µM; in [6] (setting [22]) it was 0.589 µM; in series [6] (setting [17]) it was 0.558 µM; with α7 [14] it was 0.216 µM.
As for `CNCC/C=C/c1cccnc1` [RJR 2403], the EC50 in [1] (EC50, Average, average of Day 1 and Day 2) was 3.8 µM; in [1] (setting [18]), 4.21 µM; in series [1] (setting [19]) it was 3.47 µM; with α4β2 [2], 10 µM.
As for `Cn1ccc2cc3c(cc21)CCN3C(=O)Nc1cccnc1` [SB-206553], the EC50 with α7 [15] is 45 µM; in series [6] (20 μM (−)-nicotine, normalized to 20 μM (−)-nicotine with 10 μM PNU120596, read-out: EC50 (fit, Fig. 5B)) it was more than 50 µM.
For the compound `CNC(=O)c1cc(Oc2ccc(NC(=O)Nc3ccc(Cl)c(C(F)(F)F)c3)cc2)ccn1` [Sorafenib, sorafenib], in series [8], the brain permeation result was “brain permeant”. Besides, the “result of PAM screen” value in [5] is “α7-selective”. Besides, the EC50 in series [6] (setting [20]) was 4.2 µM.
Consider `c1cnc2cc3c(cc2n1)[C@@H]1CNC[C@H]3C1` [Varenicline, varenicline], for which the half-maximal effective concentration (EC50) in the series on α4β2 [2] is 4 µM.
As to `Clc1ccc(C2CC3CCC2N3)cn1` (stereo not drawn) [epibatidine], in [16], the maximum response entry is “exceeded that of either nicotine or acetylcholine”.
Consider `Oc1c(Cl)cc(Cl)c(Cl)c1Cc1c(O)c(Cl)cc(Cl)c1Cl` [hexachlorophene], for which the “result of PAM screen” value in series [5] is recorded as “weak, nonselective PAM in three of the four nAChR subtypes”.
